The values that follow come from patent US9994552B2, “Compositions useful for treating disorders related to kit” (BLUEPRINT MEDICINES CORPORATION, priority 2013, dated 2018).

Structures are written as SMILES.

One assay has as its target D816V Kit (Homo sapiens (Human), UniProt P10721, D816V). Kind of assay: Kit D816V assay at Km (Caliper electrophoretic mobility shift). The format is biochemical. Particulars: for IC50: D816V Kit 0.5 nM, 15 uM ATP (Km), 1 uM Srctide, 25 C, 90 minutes, read-out: INH-KITD816V ENZ-KM IC50 (nM) (Num); for times more potent against the D816V mutant than against the wild-type Kit: D816V Kit versus wild-type Kit, enzyme assays at Km. The method, then:
(§1) In order to assess the activity of chemical compounds against the relevant kinase of interest, the Caliper LifeSciences electrophoretic mobility shift technology platform is used. Fluorescently labeled substrate peptide is incubated in the presence of kinase and ATP so that a […] proportion of the peptide is phosphorylated. At the end of the reaction, the mix of phosphorylated (product) and non-phosphorylated (substrate) peptides are passed through the microfluidic system of the Caliper EZ Reader 2, under an applied potential difference. The presence of the phosphate group on the product peptide provides a difference in mass and charge between those of the substrate peptide, resulting in a separation of the substrate and product pools in the sample. As the pools pass a LEDS within the instrument, these pools are detected and resolved as separate peaks. The ratio between these peaks therefore reflects the activity of the chemical matter at that concentration in that well, under those conditions.
(§2) The reaction was stopped by the addition of 70 ul of Stop buffer (100 mM HEPES pH 7.5, 0.015% Brij 35, 35 mM EDTA and 0.2% of Coating Reagent 3 (Caliper Lifesciences)). The plate was then read on a Caliper EZReader 2 (protocol settings: −1.9 psi, upstream voltage −700, downstream voltage −3000, post sample sip 35 s).

A further assay addresses wild type Kit (Homo sapiens (Human), UniProt P10721). In words: Kit wild type assay at Km (Caliper electrophoretic mobility shift). The format is biochemical. Particulars: wild type Kit 2 nM, 400 uM ATP (Km), 1 uM Srctide, 25 C, 90 minutes; read-out: INH-KITWT ENZ-KM IC50 (nM) (Num). The method, then: as §1, §2

Chain of D816V Kit (P10721 26-976 D816V): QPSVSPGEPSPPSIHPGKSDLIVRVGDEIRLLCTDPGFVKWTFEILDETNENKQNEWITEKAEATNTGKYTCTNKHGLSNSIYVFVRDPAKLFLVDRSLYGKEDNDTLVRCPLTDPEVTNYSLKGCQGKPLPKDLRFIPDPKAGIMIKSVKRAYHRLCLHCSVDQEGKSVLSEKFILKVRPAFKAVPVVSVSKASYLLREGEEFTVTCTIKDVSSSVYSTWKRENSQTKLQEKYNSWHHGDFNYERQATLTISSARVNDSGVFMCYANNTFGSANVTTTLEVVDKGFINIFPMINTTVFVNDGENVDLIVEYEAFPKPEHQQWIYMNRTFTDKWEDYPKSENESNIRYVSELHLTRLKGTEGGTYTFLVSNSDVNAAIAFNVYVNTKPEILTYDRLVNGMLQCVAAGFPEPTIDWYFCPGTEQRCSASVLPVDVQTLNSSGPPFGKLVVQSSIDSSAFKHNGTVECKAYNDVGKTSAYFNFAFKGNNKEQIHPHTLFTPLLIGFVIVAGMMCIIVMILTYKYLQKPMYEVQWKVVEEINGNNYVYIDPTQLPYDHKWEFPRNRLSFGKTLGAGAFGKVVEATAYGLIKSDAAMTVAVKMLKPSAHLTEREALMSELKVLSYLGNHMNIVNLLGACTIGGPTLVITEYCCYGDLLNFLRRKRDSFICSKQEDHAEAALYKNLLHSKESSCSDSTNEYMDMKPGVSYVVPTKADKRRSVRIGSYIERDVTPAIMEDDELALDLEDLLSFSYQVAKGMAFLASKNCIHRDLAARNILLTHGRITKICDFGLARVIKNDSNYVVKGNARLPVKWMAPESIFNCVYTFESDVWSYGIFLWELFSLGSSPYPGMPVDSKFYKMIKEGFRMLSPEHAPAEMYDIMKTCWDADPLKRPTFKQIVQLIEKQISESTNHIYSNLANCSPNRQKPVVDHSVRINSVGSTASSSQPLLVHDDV
Chain of wild type Kit (P10721 26-976): as the sequence (P10721 26-976 D816V) above, with V791D counted along it

`COc1cc2ncnc(N3CCN(c4ncc(OCc5ccccc5)cn4)[C@H](C)C3)c2cc1OC` [Compound 60]: the IC50 on D816V Kit lay in the range of 10 to 100 nM; at wild type Kit, 100 to 1000 nM.

As for `COc1cc2ncnc(N3CCN(c4ncc(Cc5ccccc5)cn4)C(=O)C3)c2cc1OC` [Compound 21], on D816V Kit, the 50% inhibitory concentration (IC50) was above 100 nM and the “times more potent against the D816V mutant than against the wild-type Kit” value (“times more potent” below) is listed as “less than 5 times”. The concentration for half-maximal inhibition (IC50) at wild type Kit is above 1000 nM.

Turning to `COc1cc2ncnc(N3CCN(c4ncc(Br)c(OC)n4)CC3)c2cc1OC` [Compound 41], the values for the IC50 at D816V Kit and at wild type Kit were above 100 nM and above 1000 nM, respectively. For the same compound, the “times more potent” value on D816V Kit was “less than 5 times”.

`COc1cc2ncnc(N3C[C@H]4CC[C@@H](C3)N4c3ncc(Cc4ccccc4)cn3)c2cc1OC` [Compound 48, 4-((1R,5S)-8-(5-Benzylpyrimidin-2-yl)-3,8-diazabicyclo[3.2.1]octan-3-yl)-6,7-dimethoxyquinazoline]: the 50% inhibitory concentration (IC50) on D816V Kit lay within 1.01 to 10 nM; on wild type Kit, 11 to 100 nM.

As to `CN1CCC(COc2ccc3ncnc(N4CCN(c5ncc(Cc6ccccc6)cn5)CC4)c3c2)CC1` [Compound 87], the results for the half-inhibitory concentration (IC50) at D816V Kit and on wild type Kit were 1.01 to 10 nM and 100 to 1000 nM, respectively.

As for `COc1cc2ncnc(N3CCN(c4ncc(Cc5ccccc5)cn4)CC3)c2cc1OC1CCNC1` (stereo not shown) [Compound 80], the concentration for half-maximal inhibition (IC50) at D816V Kit fell in the range of 1.01 to 10 nM; on wild type Kit, 11 to 100 nM.

Take `COc1ccc2c(N3CCN(c4ncc(OCc5ccccc5)cn4)CC3)ncnc2c1` [Compound 8]: the figures for the IC50 at D816V Kit and at wild type Kit were 10 to 100 nM and above 1000 nM, respectively.

For the compound `COc1cc2ncnc(N3CCN(c4ncc(NC(=O)Cc5ccccc5)cn4)CC3)c2cc1OC` [Compound 76], the concentration for half-maximal inhibition (IC50) fell in the range of 10 to 100 nM at D816V Kit and 100 to 1000 nM on wild type Kit.

On to `COc1cc2ncnc(N3CCN(c4ncc(Cc5ccccc5)c(N)n4)CC3)c2cc1OC[C@@H]1CCCN(C)C1` [Compound 124], for which the concentration for half-maximal inhibition (IC50) on D816V Kit was below 1 nM; at wild type Kit it was below 10 nM.

For `COc1cc2ncnc(N3CCN(c4ncc(O[C@@H](C)c5ccccc5)cn4)CC3)c2cc1OC` [Compound 64], the 50% inhibitory concentration (IC50) was 10 to 100 nM at D816V Kit and above 1000 nM at wild type Kit.

In the case of `COc1cc2ncnc(N3CCN(c4ncc(Cc5ccccc5)c(=O)[nH]4)CC3)c2cc1OCC1CCN(C)CC1` [Compound 127], the results for the IC50 at D816V Kit and on wild type Kit were below 1 nM and below 10 nM, respectively.

For the compound `COc1ccc2ncnc(N3CCN(c4ncc(OCc5ccccc5)cn4)CC3)c2c1` [Compound 10], the IC50 at D816V Kit is above 100 nM; on wild type Kit it was above 1000 nM.

As to `COc1cc2ncnc(N3CCN(c4ncc(Cc5ccccc5)cn4)C[C@H]3C)c2cc1OC` [Compound 28], the half-maximal inhibitory concentration (IC50) on D816V Kit was above 100 nM; at wild type Kit, above 1000 nM. In addition, the “times more potent” value at D816V Kit was “less than 5 times”.

For `COc1cc2ncnc(N3CCN(c4ncc(Cc5ccc(OC(F)F)cc5)cn4)CC3)c2cc1OC` [Compound 86], the concentration for half-maximal inhibition (IC50) lay within 1.01 to 10 nM on D816V Kit and 100 to 1000 nM at wild type Kit.

`COc1cc2ncnc(N3CCN(c4ncc(O[C@H](C)c5ccccc5)cn4)CC3)c2cc1OC` [Compound 59]: the IC50 on D816V Kit lay in the range of 1.01 to 10 nM; on wild type Kit, 100 to 1000 nM.

Take `COc1cc2ncnc(N3CCN(c4ncc(OCc5cccc(C)c5)cn4)CC3)c2cc1OC` [Compound 61]: the IC50 lay within 10 to 100 nM on D816V Kit and 100 to 1000 nM on wild type Kit.

In the case of `COc1cc2ncnc(N3CCN(c4ncc(Sc5ccc(F)cc5)cn4)CC3)c2cc1OCC1CCN(C)CC1` [Compound 140], the IC50 lay within 1.01 to 10 nM on D816V Kit and 11 to 100 nM on wild type Kit.

Take `COc1cc2ncnc(N3CCN(c4ncc(Cc5ccccc5)c(=O)[nH]4)CC3)c2cc1OCC1CN(C)CCO1` (stereo not shown) [Compound 130]: the IC50 on D816V Kit was 1.01 to 10 nM; on wild type Kit it was below 10 nM.

Take `COc1cc2ncnc(N3CCN(c4ncc(Cc5ccccc5)c(=O)[nH]4)CC3)c2cc1OC[C@H]1CNCCO1` [Compound 120]: the figures for the half-maximal inhibitory concentration (IC50) at D816V Kit and on wild type Kit were below 1 nM and below 10 nM, respectively.

Regarding `COc1cc2ncnc(N3CCN(c4ncc(Cc5ccccc5C)cn4)CC3)c2cc1OC` [Compound 25], the results for the IC50 at D816V Kit and at wild type Kit were 10 to 100 nM and 100 to 1000 nM, respectively.
